Assay results: PubChem BioAssay (NCI)
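GI50 is the concentration that inhibits growth by half. TGI denotes the concentration required for complete inhibition of growth.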

Tests used:
Test in all cases: inhibition of tumour cell growth, NCI panel, 384-well format
[1] = tested on: SNB-75 CNS
[2] = tested on: SF-539 CNS
[3] = tested on: KM12 colon
[4] = tested on: OVCAR-5 ovarian
[5] = tested on: TK-10 renal
[6] = tested on: NCI-H460 NSCLC
[7] = tested on: NCI-H23 lung
[8] = tested on: IGROV1 ovarian
[9] = tested on: UACC-257 melanoma
[10] = tested on: MDA-MB-231 breast
[11] = tested on: ACHN renal
[12] = tested on: HL-60(TB) leukemia
[13] = tested on: A498 renal
[14] = tested on: M14 melanoma
[15] = tested on: CAKI-1 renal
[16] = tested on: SK-MEL-28 melanoma
[17] = tested on: SNB-19 CNS
[18] = tested on: NCI-H226 lung
[19] = tested on: MDA-MB-435 melanoma
[20] = tested on: CCRF-CEM leukemia
[21] = tested on: A549 NSCLC
[22] = tested on: PC-3 prostate
[23] = tested on: MALME-3M melanoma
[24] = tested on: 786-0 renal
[25] = tested on: RPMI-8226 leukemia
[26] = tested on: RXF 393 renal
[27] = tested on: HS 578T breast
[28] = tested on: HOP-62 NSCLC
[29] = tested on: HOP-92 NSCLC
[30] = tested on: EKVX NSCLC
[31] = tested on: HCC-2998 colon
[32] = tested on: MDA-MB-468 breast
[33] = tested on: NCI-H322M lung
[34] = tested on: UACC-62 melanoma
[35] = tested on: HT29 colon
[36] = tested on: UO-31 renal
[37] = tested on: HCT-116 colon
[38] = tested on: COLO 205 colon
[39] = tested on: SN12C renal
[40] = tested on: MCF7 breast
[41] = tested on: U251 glioblastoma
[42] = tested on: NCI/ADR-RES ovarian
[43] = tested on: OVCAR-8 ovarian
[44] = tested on: OVCAR-3 ovarian
[45] = tested on: SW-620 colon
[46] = tested on: DU-145 prostate
[47] = tested on: HCT-15 colon
[48] = tested on: T-47D breast
[49] = tested on: OVCAR-4 ovarian
[50] = tested on: NCI-H522 lung
[51] = tested on: SF-295 CNS
[52] = tested on: MOLT-4 leukemia
[53] = tested on: K-562 leukemia
[54] = tested on: LOX IMVI melanoma
[55] = tested on: SF-268 CNS
[56] = tested on: BT-549 breast
[57] = tested on: SK-MEL-5 melanoma
[58] = tested on: SK-OV-3 ovarian

CCOC(=O)C(Cc1ccc(CCCC(=O)NCCC(=O)Nc2ccc3nc(C)sc3c2)cc1)C(=O)OCC
GI50 [1]: 19.7 µM | TGI [1]: 35.8 µM | GI50 [2]: 18.7 µM | TGI [2]: 32.8 µM | GI50 [3]: 18.8 µM | TGI [3]: 37.3 µM | GI50 [4]: > 100 µM | TGI [4]: > 100 µM | GI50 [5]: 30.4 µM | TGI [5]: 83.9 µM | GI50 [6]: 19.2 µM | TGI [6]: 35.9 µM | GI50 [7]: 19.7 µM | TGI [7]: 37.2 µM | GI50 [8]: 26.2 µM | TGI [8]: 51.9 µM | GI50 [9]: 19 µM | TGI [9]: 33.1 µM | GI50 [10]: 21.1 µM | TGI [10]: 48.1 µM | GI50 [11]: 18 µM | TGI [11]: 31.9 µM | GI50 [12]: 23 µM | TGI [12]: 37.6 µM | GI50 [13]: 27.7 µM | TGI [13]: 64.1 µM | GI50 [14]: 19.3 µM | TGI [14]: 37 µM | GI50 [15]: 18.4 µM | TGI [15]: 33.1 µM | GI50 [16]: 26.6 µM | TGI [16]: 51.7 µM | GI50 [17]: 63.1 µM | TGI [17]: > 100 µM | GI50 [18]: 17.1 µM | TGI [18]: 32.1 µM | GI50 [19]: 23.5 µM | TGI [19]: 41.2 µM | GI50 [20]: 17.5 µM | TGI [20]: 31.4 µM | GI50 [21]: 23.3 µM | TGI [21]: 59.1 µM | GI50 [22]: 19.4 µM | TGI [22]: 33.9 µM | GI50 [23]: 22.5 µM | TGI [23]: 45.7 µM | GI50 [24]: 26.7 µM | TGI [24]: 75 µM | GI50 [25]: 17.7 µM | TGI [25]: 31.7 µM | GI50 [26]: 21.8 µM | TGI [26]: 48.3 µM | GI50 [27]: 19.8 µM | TGI [27]: 34.5 µM | GI50 [28]: 17.2 µM | TGI [28]: 35.9 µM | GI50 [29]: 25.8 µM | TGI [29]: 68.2 µM | GI50 [30]: 27.7 µM | TGI [30]: 69.6 µM | GI50 [31]: 10.2 µM | TGI [31]: 35.6 µM | GI50 [32]: 12 µM | TGI [32]: 25.6 µM | GI50 [33]: 19.4 µM | TGI [33]: 38.3 µM | GI50 [34]: 19.1 µM | TGI [34]: 33.6 µM | GI50 [35]: 21.3 µM | TGI [35]: 42.5 µM | GI50 [36]: 22.9 µM | TGI [36]: 48.7 µM | GI50 [37]: 25.9 µM | TGI [37]: 62.8 µM | GI50 [38]: 21.1 µM | TGI [38]: 40.3 µM | GI50 [39]: 24.7 µM | TGI [39]: 48.4 µM | GI50 [40]: 16.7 µM | TGI [40]: 32.5 µM | GI50 [41]: 37.6 µM | TGI [41]: > 100 µM | GI50 [42]: 17.9 µM | TGI [42]: 31.9 µM | GI50 [43]: 18.1 µM | TGI [43]: 32 µM | GI50 [44]: 21.9 µM | TGI [44]: 40.4 µM | GI50 [45]: 55.2 µM | TGI [45]: > 100 µM | GI50 [46]: 19.8 µM | TGI [46]: 34.9 µM | GI50 [47]: 23.1 µM | TGI [47]: 47.9 µM | GI50 [48]: 8.21 µM | TGI [48]: 20.4 µM | GI50 [49]: 32.5 µM | TGI [49]: 72 µM | GI50 [50]: 20.5 µM | TGI [50]: 37.1 µM | GI50 [51]: 35.4 µM | TGI [51]: > 100 µM | GI50 [52]: 13 µM | TGI [52]: 25.7 µM | GI50 [53]: 14 µM | TGI [53]: 33.6 µM | GI50 [54]: 16.8 µM | TGI [54]: 30.8 µM | GI50 [55]: 17.7 µM | TGI [55]: 38.3 µM | GI50 [56]: 19.2 µM | TGI [56]: 33.8 µM | GI50 [57]: 14.1 µM | TGI [57]: 27.1 µM | GI50 [58]: 22.6 µM | TGI [58]: 46.8 µM
